Entries after “also recorded” stand apart in the source; their conditions may differ.
Assays:
[1] = Maximum tolerated dose / acute oral toxicity; type: in vivo; set-up: key to Behavioral, Neurologic and Autonomic signs, Response, all listed signs: 0; no adverse effect; ±1 mild adverse effect; ±2, moderate adverse effect; ±3 severe adverse effect; details: for Body Weight, Mean / Toxicity (death/test) / Behavioral, Neurologic and Autonomic signs, Response, all listed signs: Female SD rats; for Behavioral, Neurologic and Autonomic signs, Response, all listed signs: observation time 1 hr, 3 animals
Description: Female Sprague-Dawley rats (Charles river laboratories, strain code: Crl:CD(SD) 001, 8–10 weeks old) were used by the eurofins lab services (Eurofins Discovery) to test the toxicity of SU056.
The acute oral toxicity of SU056 was evaluated by Eurofins lab services (Eurofins discovery). The oral toxicity study was performed in female rats and mice for multiple escalating doses (100 mg/kg, 200 mg/kg, 400 mg/kg). Rats and mice were monitored for their behavioral, neurological and autonomic signs after administration of SU056. The response was recorded as 0; no adverse effect, ±1 mild adverse effect, ±2, moderate adverse effect and ±3 severe adverse effect.

EMT6 tumor = experiment: Syngeneic mouse TNBC model; type: in vivo; details: 50 mg/kg oral gavage, Balb/cJ mice
Description: (§1) Female NOD-Scid gamma (NSG, Homozygous for Prkdc, Hemizygous for Il2rg<tm1Wjl>) (Strain #005557) and Balb/cJ (Strain#000651) (7–8 weeks old) mice were purchased from the Jackson Laboratory and housed under standard laboratory conditions. The Institutional Animal Care & Use Program of Oregon Health and Science University approved the protocol (#IP00003247). MDA-MB-231 (3 x 10^6), MDA-MB-468 (5 x 10^6), 4T1 (1 x 10^5) and EMT6 (1 x 10^5) cells were suspended in 100 μL of 1x PBS and injected subcutaneously in each mouse. Tumor growth was monitored regularly and once the tumors reached approximately around 50–100 mm^3, treatment with SU056 (50 mg/kg body weight given by oral gavage, 5 days per week) was started. Tumor size and body weight were measured once a week. At the end of treatment, mice were euthanized via deep anesthesia followed by cervical dislocation. Tumors were excised and weighed. Tumor samples were processed for immunoblotting for different markers.

4T1 tumor = experiment: Syngeneic mouse TNBC model; type: in vivo; details: 50 mg/kg oral gavage, Balb/cJ mice
Description: as §1

[2] = system: MDA-MB-231, MDA-MB-468 and MCF12A cells; experiment: Global proteome profiling with pathway enrichment; type: cell-based, human; details: 1 μM, 12 h, TNBC cells vs vehicle
Description: MDA-MB-231, MDA-MB-468, and MCF12A cells were grown to 80% confluence and then treated with DMSO (vehicle control) or SU056 (1 μM) for 12 h. Cells were washed twice with phosphate-buffered saline (PBS), harvested by scaping, and centrifuged. Cells were lysed by vortexing in 100 mM triethylammonium bicarbonate (TEAB, Thermo Fisher Scientific) in 1% sodium dodecyl sulfate (SDS). The lysate was centrifuged, and the supernatant was retained. A bicinchoninic acid assay (BCA, Thermo Scientific, Rockville, IL) was used to measure protein concentration and 50 μg of protein per sample was subjected to disulfide bond reduction using 10 mM TCEP (Sigma Aldrich) for 1 h at 55°C. Cysteine resides were then alkylated with iodoacetamide (Sigma Aldrich) for 30 min at room temperature in the dark. […] All samples were analyzed in triplicate.
Using a Dionex Ultimate Rapid Separation Liquid Chromatography system (Thermo Fisher Scientific), a 3 μL injection of the combined TMT-labeled peptide solution was loaded onto a PepMap 100 C18 trap column (Thermo Fisher Scientific) at a rate of 5 μL/min for 10 min. […] The flow rate was set to 0.6 μL/min throughout the gradient and each sample was analyzed in triplicate. […]
Raw LC-MS/MS data was analyzed using MaxQuant[50] searching against the Swiss-Prot human reference proteome database (20,626 entries as of 2020). […]

[3] = system: TNBC cells (MDA-MB-231, MDA-MB-468, SUM159); experiment: Immunoblot assay of cell lysates; type: cell-based, human; details: MDA-MB-231 and MDA-MB-468, 1 and 2 μM

## O=C1OCC2=C1C(c1cccc(F)c1)c1cc3c(cc1N2CCO)OCO3 (centres unmarked) [SU056, 9-(3-fluorophenyl)-5-(2-hydroxyethyl)-6,9-dihydro-[1,3]dioxolo[4,5-g]furo[3,4-b]quinolin-8(5H)-one]
[1]; 100 mg/kg, 0 hr
  Body Weight, Mean: 212.7 gm
[1]; 100 mg/kg, 15 min
  Toxicity (death/test): 0/3
[1]; 100 mg/kg, 1 hr
  Toxicity (death/test): 0/3
[1]; 100 mg/kg, 24 hr
  Body Weight, Mean: 216.7 gm
[1]; 100 mg/kg, 24 hrs
  Toxicity (death/test): 0/3
[1]; 100 mg/kg, 48 hr
  Body Weight, Mean: 219.0 gm
[1]; 100 mg/kg, 48 hrs
  Toxicity (death/test): 0/3
[1]; 100 mg/kg, 72 hr
  Body Weight, Mean: 229.7 gm
[1]; 100 mg/kg, 72 hrs
  Toxicity (death/test): 0/3
[1]; 100 mg/kg
  Behavioral, Neurologic and Autonomic signs, Response, all listed signs: 0
[1]; 200 mg/kg, 0 hr
  Body Weight, Mean: 204.3 gm
[1]; 200 mg/kg, 15 min
  Toxicity (death/test): 0/3
[1]; 200 mg/kg, 1 hr
  Toxicity (death/test): 0/3
[1]; 200 mg/kg, 24 hr
  Body Weight, Mean: 208.0 gm
[1]; 200 mg/kg, 24 hrs
  Toxicity (death/test): 0/3
[1]; 200 mg/kg, 48 hr
  Body Weight, Mean: 211.0 gm
[1]; 200 mg/kg, 48 hrs
  Toxicity (death/test): 0/3
[1]; 200 mg/kg, 72 hr
  Body Weight, Mean: 215.0 gm
[1]; 200 mg/kg, 72 hrs
  Toxicity (death/test): 0/3
[1]; 200 mg/kg
  Behavioral, Neurologic and Autonomic signs, Response, all listed signs: 0
[1]; 400 mg/kg, 0 hr
  Body Weight, Mean: 204.0 gm
[1]; 400 mg/kg, 15 min
  Toxicity (death/test): 0/3
[1]; 400 mg/kg, 1 hr
  Toxicity (death/test): 0/3
[1]; 400 mg/kg, 24 hr
  Body Weight, Mean: 200.0 gm
[1]; 400 mg/kg, 24 hrs
  Toxicity (death/test): 0/3
[1]; 400 mg/kg, 48 hr
  Body Weight, Mean: 209.7 gm
[1]; 400 mg/kg, 48 hrs
  Toxicity (death/test): 0/3
[1]; 400 mg/kg, 72 hr
  Body Weight, Mean: 216.7 gm
[1]; 400 mg/kg, 72 hrs
  Toxicity (death/test): 0/3
[1]; 400 mg/kg
  Behavioral, Neurologic and Autonomic signs, Response, all listed signs: 0
[1]; rats, 100, 200, and 400 mg/kg oral gavage, 72 h
  behavioral, neurological, and anatomical signs of toxicity and morbidity: not affected; also recorded: no observable changes
EMT6 tumor
  reduction in tumor weight: 42.53%
  tumor growth decreased in comparison to control: 37.47%
4T1 tumor
  primary tumor load reduced compared with vehicle control: 45.53%
  tumor weight reduced compared with vehicle control: 61%
[2]
  protein translation processes (proteomic pathway analysis): modulated
[3]
  BCL-2 expression: inhibited
  Bax expression: induced
